For orientation: IC50 means the concentration that gives 50% inhibition. Higher therefore signals lower potency.

Data on four compounds can be found in patent US7678788B2, “Diazabicyclic aryl derivatives” (Neurosearch A/S, priority 2003, dated 2010).

The target in the assay is T1, α7-subtype of nicotinic receptors (Rattus norvegicus, UniProt Q05941).
T1 construct: Cerebral cortices from male Wistar rats (150-250 g) are homogenised; from tissue; host or cells: rat cerebral cortex membrane homogenate
Briefly: In vitro inhibition of 3H-α-bungarotoxine binding in rat brain. The settings on record: rat cerebral cortex homogenate; 3H-α-bungarotoxine 2 nM; 2 hours at 37° C.

T1 sequence (Q05941 23-502): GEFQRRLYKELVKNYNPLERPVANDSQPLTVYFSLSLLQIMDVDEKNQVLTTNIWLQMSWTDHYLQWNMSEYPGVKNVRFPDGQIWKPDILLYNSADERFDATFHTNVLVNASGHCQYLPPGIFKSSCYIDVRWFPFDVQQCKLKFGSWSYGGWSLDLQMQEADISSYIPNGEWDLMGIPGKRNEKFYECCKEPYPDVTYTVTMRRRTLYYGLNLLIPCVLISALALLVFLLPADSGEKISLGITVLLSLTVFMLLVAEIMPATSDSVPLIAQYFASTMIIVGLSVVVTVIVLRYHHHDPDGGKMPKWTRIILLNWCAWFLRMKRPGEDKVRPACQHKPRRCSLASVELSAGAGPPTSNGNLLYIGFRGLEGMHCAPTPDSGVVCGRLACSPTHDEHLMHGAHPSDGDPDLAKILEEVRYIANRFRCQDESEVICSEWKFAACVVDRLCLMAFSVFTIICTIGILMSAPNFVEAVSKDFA

The compound `O=C(c1ccc(-c2cccc(C(F)(F)F)c2)o1)N1CCN2CCC1CC2` [Compound A5, (1,4-Diaza-bicyclo[3.2.2]-non-4-yl)-5-(3-trifluoromethylphenyl)-furan-2-yl-methanone] came in with an IC50 of 51 nM.

`Nc1cccc(-c2ccc(C(=O)N3CCN4CCC3CC4)o2)c1` [Compound C3, (1,4-Diaza-bicyclo[3.2.2]-non-4-yl)-5-(3-aminophenyl)-furan-2-yl-methanone] showed an IC50 of 80 nM. This IC50 is about 1.6-fold higher than that of the compound before.

The compound `O=C(c1ccco1)N1CCN2CCC1CC2` [Compound A1, (1,4-Diaza-bicyclo[3.2.2]-non-4-yl)-furan-2-yl-methanone] displayed an IC50 of 540 nM. Compared with the last compound, the IC50 is about 6.8-fold higher.

In turn, `O=CNc1ccc(-c2ccc(C(=O)N3CCN4CCC3CC4)o2)cc1` [Compound F1, (1,4-Diaza-bicyclo[3.2.2]-non-4-yl)-5-(4-formylaminophenyl)-furan-2-yl-methanone] gave an IC50 of 17 nM. This IC50 is about 32-fold lower than that of the compound before.
